The text below walks through data of US7112608B2, “Hydroxyphenylundecane, a process for their production and their use” (Sanofi-Aventis Deutschland GmbH, priority 2002, dated 2006).

One data set deals with T1, JNK3 (Homo sapiens, UniProt P53779).
T1 construct: Biotech, Vitry
As to the kind of experiment: JNK3 Assay (HTRF, JNK-3/GST-ATF2). The data set is classed as biochemical. The conditions noted are these: JNK3 kinase, GST-ATF2 substrate, 15 μM ATP solution, 20 min at 37° C. How it is done:
The assay was performed on a Cybio pipetting system in the 384-well plate format. The final assay volume was 30 μl, comprising 10 μl of a probe (an extract or a pure substance-to-be-tested), 10 μl of an enzym-subtrate mixture (JNK-3/GST-ATF2) and 10 μl ATP solution. After 20 min incubation at 37° C. 50 μl HTRF abtibody mixture (XL665-anti-GST/(Eu)cryptat anti-P-ATF2) were added. The emission intensity of the energy transfer and of Eu at 665 and 615 nm, resp., were measured after 120 min at room temperature and stimulation of the probes at 340 nm in a Victor2® (Wallac).
Buffer I for diluting JNK3, GST-ATF2, ATP:
Buffer II for diluting HTRF reagents:
Each plate included 16 positiv controls (maximum energy transfer, buffer I instead of probe), 8 blank controls (minimal energy transfer, buffer 11 instead of ATP) and 8 wells containing a 200 μM EDTA solution.
The results were calculated as follows:
Signal Ration: SR=(intensity(665 nm)/intensity(615 nm)) Blank Correction: Delta F(%)=[…] Inhibition: Inhibition (%)=100×[1−(Delta F(Probe)/Delta F(max))

The nature of data set [1]: Physico chemical properties: solubility. The class given is physicochemical. As to conditions: solvents in which the compound is soluble.

T1 sequence (P53779 whole entry): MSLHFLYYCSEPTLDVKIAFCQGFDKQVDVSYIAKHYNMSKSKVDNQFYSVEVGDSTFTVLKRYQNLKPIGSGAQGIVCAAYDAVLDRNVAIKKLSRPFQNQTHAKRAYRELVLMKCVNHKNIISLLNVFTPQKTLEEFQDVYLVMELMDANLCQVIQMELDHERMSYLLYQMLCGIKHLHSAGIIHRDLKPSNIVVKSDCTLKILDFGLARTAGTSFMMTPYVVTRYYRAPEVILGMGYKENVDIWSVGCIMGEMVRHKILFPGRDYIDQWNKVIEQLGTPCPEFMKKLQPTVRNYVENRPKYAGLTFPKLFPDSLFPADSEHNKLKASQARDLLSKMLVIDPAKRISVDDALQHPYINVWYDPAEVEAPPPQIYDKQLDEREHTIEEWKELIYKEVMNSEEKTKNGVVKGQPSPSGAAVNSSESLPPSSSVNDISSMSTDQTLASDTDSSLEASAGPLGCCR

`CCCCCCCCCCCc1cc(O)cc(O)c1C(=O)OC(CCC)CCCCCCCc1cc(OS(=O)(=O)O)cc(OS(=O)(=O)O)c1` (stereo not drawn) [Spinosulfate A]: the IC50 at JNK3 was found to be 0.5 µM. The Solubility result in data set [1] was “Methanol, DMSO”.
At JNK3, `CCCCCCCCCCCc1cc(O)cc(O)c1C(=O)OC(CCC)CCCCCCCc1cc(O)cc(O)c1` (stereo not drawn) [Spinosulfate B] returned an IC50 of 10 µM. This counts as double-digit micromolar.
